Measured values reported in patent publication US7329646B2, “Derivatives of the insulinotropic peptide exendin-4 and methods of production thereof” (Shanghai Huayi Bio-Lab Co., Ltd., priority 2001, dated 2008).

Legend:
Type in all cases: in vivo
[1] = test system: non-diabetic C57 BL/6J mice; assay: Blood glucose after glucose challenge in non-diabetic C57 BL/6J mice (Example 3); details: overnight-fasted mice; 20% glucose (200 μl) i.p. with simultaneous s.c. peptide: GLP-1 1 μg, exendin-4 0.2 μg, derivative 0.2 μg; 0, 30, 60, 120 minutes; FIG. 2
Method: Experiments were conducted to determine the effect on the blood glucose levels of non-diabetic C57 BL/6J mice of the exendin-4 (Leu14, Lys20, Arg40) peptide derivative relative to GLP-1 and the wild-type exendin-4 peptide. Overnight-fasted C57 BL/6J mice weighing 20 g were injected with a 20% glucose solution (200 μl) intra-peritoneally and simultaneously subcutaneously injected with either a saline control, GLP-1 (1 μg), exendin-4 (0.2 μg), or exendin-4 (Leu14, Lys20, Arg40) (0.2 μg). Blood glucose levels were determined using standard glucose determination kits at 0, 30, 60, and 120 minutes post-injection.

[2] = test system: db/db diabetic mice; assay: Blood glucose after glucose challenge in db/db diabetic mice (Example 4); details: 2-hour-fasted db/db mice; 20% glucose (200 μl) i.p. with simultaneous s.c. GLP-1 4 μg, E4m 0.2 μg or Humalog 4 μg; 0-180 minutes; FIG. 3
Method: In order to extend the experimental results obtained in Example 3 with non-diabetic mice, experiments were also conducted to determine the effect on blood glucose levels of db/db diabetic mice of the exendin-4 (Leu14, Lys20, Arg40) peptide derivative relative to GLP-1 and Rapid Insulin.
Specifically, 2-hour-fasted db/db mice weighing 50 g were injected with a 20% glucose solution (200 μl) intra-peritoneally and simultaneously subcutaneously injected with either a saline control, GLP-1 (4 μg), exendin-4 (Leu14, Lys20, Arg40) (“E4m”)(0.2 μg), or the commercially available insulin, Humalog® (Eli Lilly and Company) (4 μg). Blood glucose levels were determined using standard glucose determination kits at 0, 30, 60, 120, and 180 minutes post-injection, and hypoglycemia (%) was calculated relative to the baseline (t=0) blood glucose level of animals receiving saline control.

[3] = test system: C57 BL/6J mice; assay: Long-term blood glucose buffering with second glucose challenge at 240 minutes in C57 BL/6J mice (Example 5); details: FIG. 4; for effect on rise in blood glucose levels after the initial glucose injection: overnight-fasted mice, 20% glucose (200 μl) i.p. with simultaneous s.c. GLP-1 1 μg or E4m 0.2 μg; for activity on blood glucose after second glucose challenge at 240 minutes after the first injection: peptide given only at first injection (GLP-1 1 μg, E4m 0.2 μg), glucose measured at 240, 270, 300 minutes
Method: In order to determine the long-term ability of the exendin-4 derivative exendin-4 (Leu14, Lys20, Arg40) to buffer blood glucose levels, experiments were performed in which blood glucose levels in the presence of this exendin-4 derivative were determined at various times after an initial glucose challenge at 0 minutes and then a second glucose challenge at 240 minutes.
Specifically, overnight-fasted C57 BL/6J mice weighing 20 g were injected with a 20% glucose solution (200 μl) intra-peritoneally and simultaneously subcutaneously injected with either a saline control, GLP-1 (1 μg), or exendin-4 (Leu14, Lys20, Arg40) (0.2 μg). Then, at 240 minutes after the initial injection a second injection of 20% glucose solution (200 μl) intra-peritoneally was performed. Blood glucose levels were determined using standard glucose determination kits at 0, 30, 60, 240, 270, and 300 minutes after the first injection.

[4] = test system: NOD mice; assay: Blood glucose after glucose challenge in NOD mice (Example 6); details: overnight-fasted NOD mice
Method: Experiments to determine the effects on blood glucose levels of the exendin-4 derivative exendin-4 (Lys20, Arg40) were conducted in NOD mice provided by the Shanghai Laboratory Animal Center of Chinese Academy of Sciences. 0.9% sodium chloride solution and exendin-4 (Lys20, Arg40) were used in the assay. Plasma glucose testing kits were purchased from Shanghai Institute of Biological Products Ministry of Health.
Overnight-fasted NOD mice were divided into two groups. Mice in the first group were abdominally injected with 200 μl of a solution containing 40% glucose and 1 μg of exendin-4 (Lys20, Arg40). Mice in the second (control) group […] with a glucose solution.
30 μl of blood sample was taken from retro-orbital zeinous sinus immediately using a scaled capillary which was treated beforehand with heparin, placed into 300 μl of normal saline and mixed with the saline. Erythrocytes were removed by centrifugation at 3,000 rpm, while blood serum was kept for glucose determination. Different blood samples were taken as described above at 30 min, 60 min and 120 min, and blood serum was separated. Glucose concentrations of three plasma samples were determined according to the method described in the testing kits, and the decreasing effect of exendin-4 (Lys20, Arg40) on blood glucose concentration was determined.

[5] = test system: Healthy C57 BL mice; assay: C-peptide secretion in healthy C57 BL mice, C-peptide radioimmunoassay (Example 8); details: abdominal injection of 5 μg in 200 μl saline, data not shown
Method: In order to further investigate the insulinotropic properties of the exendin-4 derivative exendin-4 (Lys20, Arg40), experiments were conducted to measure the effect of administration of this compound on the production of C-peptide, which, as discussed previously, is produced in equal amounts as insulin by the cleavage of proinsulin. Healthy C57 BL mice were provided by Shanghai Laboratory Animal Center of Chinese Academy of Sciences. 40% glucose solution, 0.9% sodium chloride solution and exendin-4 (Lys20, Arg40) were used in the experiments. Insulin radioimmunoassay kits and C-peptide radioimmunoassay kits were purchased from Shanghai Institute of Biological Products Ministry of Health.
Healthy C57 BL mice were divided into two groups. 50 μl of blood sample was taken from plexus venosus of the eye using a scaled capillary, the inner wall of which was rinsed with 1 mg/mL heparin and was air-dried beforehand. Mice in two groups were abdominally injected with 200 μl normal saline alone, or with a similar amount of saline containing 5 μg of exendin-4 (Lys20, Arg40), respectively at t=0. […] The C-peptide concentration in each sample was determined by following the method described by the radioimmunoassay kit, and the stimulating effect of exendin-4 (Lys20, Arg40) on C-peptide secretion was determined.

[6] = test system: NOD mice; assay: Insulin secretion in NOD mice, insulin radioimmunoassay (Example 7); details: abdominal injection of 5 μg in 200 μl saline, 5, 10, 20, 30 min, data not shown
Method: In order to determine whether the ability of the exendin-4 derivative exendin-4 (Lys20, Arg40) to decrease blood glucose in NOD mice is an insulinotropic effect, experiments were conducted to measure the effect of administration of this compound on insulin levels. In these experiments, NOD mice were provided by Shanghai Laboratory Animal Center of Chinese Academy of Sciences. 40% glucose solution, 0.9% sodium chloride solution, and exendin-4 (Lys20, Arg40) were used in the experiment. Insulin radioimmunoassay kits were purchased from Shanghai Institute of Biological Products Ministry of Health.
NOD mice were divided into two groups. 50 μl of blood sample was taken from the plexus venosus of the eye using a scaled capillary, the inner wall of which was rinsed with 1 mg/mL heparin and was air-dried beforehand. Mice in the two groups were abdominally injected with either 200 μl normal saline alone, or with a similar amount of saline containing 5 μg exendin-4 (Lys20, Arg40), respectively at t=0. Different blood samples were taken as described above at 5 min, 10 min, 20 min and 30 min. […] Insulin concentrations of different samples were determined by following the methods described in the radioimmunoassay kit, and the stimulating effect of exendin-4 (Lys20, Arg40) on insulin secretion was determined.

| Substance | effect on blood glucose levels after glucose challenge [1] | effect on blood glucose levels after glucose challenge [2] | effect on rise in blood glucose levels after the initial glucose injection [3] | activity on blood glucose after second glucose challenge at 240 minutes after the first injection [3] | time after administration up to which dramatic fluctuations in glucose concentration are prevented ([4]; 200 μl 40% glucose with 1 μg peptide, abdominal injection) | blood glucose concentration after glucose challenge ([4]; abdominal injection of 200 μl 40% glucose with 1 μg peptide, 30, 60, 120 min, data not shown) | stimulating effect on C-peptide secretion [5] | stimulating effect on insulin secretion [6] |
| --- | --- | --- | --- | --- | --- | --- | --- | --- |
| Glucagon-like peptide-1 (HAEGTFTSDVSSYLEGQAAKEFIAWLVKGR; listed as Homo sapiens) [GLP-1, peptide hormone secreted by intestinal cells that enhances insulin secretion, reference compound] | acted to buffer changes in blood glucose levels | resulted in the buffering of changes in blood glucose levels | drastically reduced | GLP-1 activity is essentially abolished | – | – | – | – |
| Humalog®: commercially available insulin, Humalog® (Eli Lilly and Company) | – | resulted in the buffering of changes in blood glucose levels | – | – | – | – | – | – |
| exendin-4 (Leu14, Lys20, Arg40) | produced a response profile virtually identical to that seen with the wild-type exendin-4 sequence | resulted in the buffering of changes in blood glucose levels | essentially eliminated | activity at times of 240 or more minutes after first injection is preserved | – | – | – | – |
| exendin-4 (Lys20, Arg40) | – | – | – | – | at least 2 hours | never showed a notable increase in blood glucose | significantly stimulates the secretion of C-peptide relative to the control | significantly stimulates insulin secretion |
| exendin-4 [wild-type exendin-4] | acted to buffer changes in blood glucose levels | – | – | – | – | – | – | – |
